According to patent US9409917B2, “Heterocyclic amide derivatives as P2X7 receptor antagonists” (ACTELION PHARMACEUTICALS LTD., priority 2012, dated 2016):
Like-named read-outs stand apart in the source and are kept apart here.

Molecular target: human recombinant P2X7 receptor (Homo sapiens (Human), UniProt Q99572)
Test: YO-PRO assay: P2X7 receptor antagonistic activity (ATP-induced YO-PRO-1 uptake, FLIPR)
[1] = read-out: IC50 [nM], antagonistic activities with respect to the P2X7 receptor, HEK-293 cells expressing human recombinant P2X7 receptor, YO-PRO-1 fluorescence, ATP 250 μM, 90 minutes, highest concentration 10 μM

Chain of human recombinant P2X7 receptor (Q99572 whole entry): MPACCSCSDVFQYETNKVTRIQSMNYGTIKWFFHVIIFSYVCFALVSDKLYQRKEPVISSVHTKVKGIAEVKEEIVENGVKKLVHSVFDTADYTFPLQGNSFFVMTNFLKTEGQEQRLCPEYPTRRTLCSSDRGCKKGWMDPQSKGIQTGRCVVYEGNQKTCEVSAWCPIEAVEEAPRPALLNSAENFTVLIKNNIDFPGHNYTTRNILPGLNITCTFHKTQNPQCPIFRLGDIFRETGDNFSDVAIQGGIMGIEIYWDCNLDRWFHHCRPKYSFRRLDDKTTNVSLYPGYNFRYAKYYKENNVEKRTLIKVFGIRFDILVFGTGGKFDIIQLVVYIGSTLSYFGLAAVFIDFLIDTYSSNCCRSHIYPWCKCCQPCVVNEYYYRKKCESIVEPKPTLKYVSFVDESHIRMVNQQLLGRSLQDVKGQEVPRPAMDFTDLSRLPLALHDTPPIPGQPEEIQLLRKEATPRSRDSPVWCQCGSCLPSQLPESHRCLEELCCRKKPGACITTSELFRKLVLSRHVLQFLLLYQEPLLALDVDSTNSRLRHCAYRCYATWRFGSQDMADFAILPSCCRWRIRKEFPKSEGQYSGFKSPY

| Structure (SMILES) | IC50 [nM] | IC50 [1] [nM] | further results |
| --- | --- | --- | --- |
| O=C(NCc1c(Cl)cc(Cl)cc1C(F)(F)F)C1COc2ncccc21 (racemic) [Example 68, rac-2,3-Dihydro-furo[2,3-b]pyridine-3-carboxylic acid 2,4-dichloro-6-trifluoromethyl-benzylamide] | 13.8 |  |  |
| COCc1cc(Cl)cc(Cl)c1CNC(=O)C1COc2ncccc21 (racemic) [Example 72, rac-2,3-Dihydro-furo[2,3-b]pyridine-3-carboxylic acid 2,4-dichloro-6-methoxymethyl-benzylamide] | 14.6 |  |  |
| O=C1CC(NC(=O)C2COc3ncccc32)c2ccccc21 (racemic) [Example 88, rac-2,3-Dihydro-furo[2,3-b]pyridine-3-carboxylic acid (3-oxo-indan-1-yl)-amide] | 1450 |  |  |
| O=C1CC(NC(=O)C2COc3ncccc32)c2ccccc21 (racemic) [Example 89, rac-2,3-Dihydro-furo[2,3-b]pyridine-3-carboxylic acid (3-oxo-indan-1-yl)-amide] | 2510 |  |  |
| O=C(NCc1c(Cl)cc(Cl)cc1COCCO)C1COc2ncccc21 (racemic) [Example 93, rac-2,3-Dihydro-furo[2,3-b]pyridine-3-carboxylic acid 2,4-dichloro-6-(2-hydroxy-ethoxymethyl)-benzylamide] | 11.4 |  |  |
| [2H]C([2H])([2H])c1cc(Cl)cc(Cl)c1CNC(=O)C1COc2ncccc21 (racemic) [Example 96, rac-2,3-Dihydro-furo[2,3-b]pyridine-3-carboxylic acid 2,4-dichloro-6-trideuteromethyl-benzylamide] | 2.7 |  |  |
| O=C(NCc1ccc(C(F)(F)F)cc1Cl)C1COc2ncccc21 (racemic) [Example 103, rac-2,3-Dihydro-furo[2,3-b]pyridine-3-carboxylic acid 2-chloro-4-trifluoromethyl-benzylamide] | 80.4 |  |  |
| O=C(NCCCc1ccc(Cl)cc1Cl)C1COc2ncccc21 (racemic) [Example 106, rac-2,3-Dihydro-furo[2,3-b]pyridine-3-carboxylic acid [3-(2,4-dichloro-phenyl)-propyl]-amide] | 346 |  |  |
| O=C(NCc1c(Cl)cc(Cl)cc1Cl)C1COc2ncccc21 (racemic) [Example 114, rac-2,3-Dihydro-furo[2,3-b]pyridine-3-carboxylic acid 2,4,6-trichloro-benzylamide] | 12.5 |  |  |
| Cc1cc(Cl)cc(Cl)c1CNC(=O)C1COc2c1ccc[n+]2[O-] (racemic) [Example 115, rac-7-Oxy-2,3-dihydro-furo[2,3-b]pyridine-3-carboxylic acid 2,4-dichloro-6-methyl-benzylamide] |  |  | IC50 (read-out: IC50 [nM], antagonistic activities with respect to the P2X7 receptor): 35.4 nM |
| O=C(NCc1c(Cl)cccc1CO)C1COc2ncccc21 (racemic) [Example 118, rac-2,3-Dihydro-furo[2,3-b]pyridine-3-carboxylic acid 2-chloro-6-hydroxymethyl-benzylamide] | 304 |  |  |
| O=C(N[C@H](CO)C1CCCCC1)C1COc2ncccc21 (single isomer, unassigned) [Example 1] |  | 1070 |  |
| O=C(N[C@H](CO)C1CCCCC1)C1COc2ncccc21 (single isomer, unassigned) [Example 2] |  | 106 |  |
| Cc1cc(Cl)cc(Cl)c1CNC(=O)C1COc2ncccc21 (single isomer, unassigned) [Example 3, 2,3-Dihydro-furo[2,3-b]pyridine-3-carboxylic acid 2,4-dichloro-6-methyl-benzylamide] |  | 18.3 |  |
| Cc1cc(Cl)cc(Cl)c1CNC(=O)C1COc2ncccc21 (single isomer, unassigned) [Example 4, 2,3-Dihydro-furo[2,3-b]pyridine-3-carboxylic acid 2,4-dichloro-6-methyl-benzylamide] |  | 2.9 |  |
| O=C(N[C@H](CO)c1ccc(Cl)cc1Cl)C1COc2ncccc21 (single isomer, unassigned) [Example 6] |  | 621 |  |
| O=C(N[C@H](CO)c1ccc(Cl)cc1Cl)C1COc2ncccc21 (single isomer, unassigned) [Example 7] |  | 117 |  |
| O=C(NC(CO)C1CCCCCC1)C1COc2ncccc21 (single isomer, unassigned) [Example 13, rac-2,3-Dihydro-furo[2,3-b]pyridine-3-carboxylic acid (1-cycloheptyl-2-hydroxy-ethyl)-amide] | 813 |  |  |
| O=C(NC(CO)C1CCCCCC1)C1COc2ncccc21 (single isomer, unassigned) [Example 14, rac-2,3-Dihydro-furo[2,3-b]pyridine-3-carboxylic acid (1-cycloheptyl-2-hydroxy-ethyl)-amide] | 117 |  |  |

| Structure (SMILES) | IC50 [nM] | IC50 [1] [nM] | further results |
| --- | --- | --- | --- |
| Cc1cc(Cl)cc(Cl)c1CNC(=O)C1CCOc2ncccc21 (single isomer, unassigned) [Example 17, 3,4-Dihydro-2H-pyrano[2,3-b]pyridine-4-carboxylic acid 2,4-dichloro-6-methyl-benzylamide] |  | 1.3 |  |
| Cc1cc(Cl)cc(Cl)c1CNC(=O)C1CCOc2ncccc21 (single isomer, unassigned) [Example 18, 3,4-Dihydro-2H-pyrano[2,3-b]pyridine-4-carboxylic acid 2,4-dichloro-6-methyl-benzylamide] |  | 1.6 |  |
| O=C(NCc1c(Cl)cc(Cl)cc1CO)C1COc2ncccc21 (single isomer, unassigned) [Example 24, 2,3-Dihydro-furo[2,3-b]pyridine-3-carboxylic acid 2,4-dichloro-6-hydroxymethyl-benzylamide] |  | 39.4 |  |
| O=C(NCc1c(Cl)cc(Cl)cc1CO)C1COc2ncccc21 (single isomer, unassigned) [Example 25, 2,3-Dihydro-furo[2,3-b]pyridine-3-carboxylic acid 2,4-dichloro-6-hydroxymethyl-benzylamide] |  | 2.7 |  |
| Cc1ncc(C(CNC(=O)C2COc3ncccc32)N2CCC(F)(F)CC2)cn1 (single isomer, unassigned) [Example 27, rac-2,3-Dihydro-furo[2,3-b]pyridine-3-carboxylic acid [2-(4,4-difluoro-piperidin-1-yl)-2-(2-methyl-pyrimidin-5-yl)-ethyl]-amide] | 1360 |  |  |
| Cc1ncc(C(CNC(=O)C2COc3ncccc32)N2CCC(F)(F)CC2)cn1 (single isomer, unassigned) [Example 28, rac-2,3-Dihydro-furo[2,3-b]pyridine-3-carboxylic acid [2-(4,4-difluoro-piperidin-1-yl)-2-(2-methyl-pyrimidin-5-yl)-ethyl]-amide] | 58.9 |  |  |
| O=C(NCC(c1cnc(C(F)(F)F)nc1)N1CCOCC1)C1COc2ncccc21 (single isomer, unassigned) [Example 59, rac-2,3-Dihydro-furo[2,3-b]pyridine-3-carboxylic acid [2-morpholin-4-yl-2-(2-trifluoromethyl-pyrimidin-5-yl)-ethyl]-amide] | 346 |  |  |
| O=C(NCC(c1cnc(C(F)(F)F)nc1)N1CCOCC1)C1COc2ncccc21 (single isomer, unassigned) [Example 60, rac-2,3-Dihydro-furo[2,3-b]pyridine-3-carboxylic acid [2-morpholin-4-yl-2-(2-trifluoromethyl-pyrimidin-5-yl)-ethyl]-amide] | 29 |  |  |
| O=C(NCc1c(Cl)cc(Cl)cc1Br)C1COc2ncccc21 (single isomer, unassigned) [Example 79, 2,3-Dihydro-furo[2,3-b]pyridine-3-carboxylic acid 2-bromo-4,6-dichloro-benzylamide] |  | 51.1 |  |
| O=C(NCc1c(Cl)cc(Cl)cc1Br)C1COc2ncccc21 (single isomer, unassigned) [Example 80, 2,3-Dihydro-furo[2,3-b]pyridine-3-carboxylic acid 2-bromo-4,6-dichloro-benzylamide] |  | 4.1 |  |
| O=C(NCC(c1cnc(C(F)(F)F)nc1)N1CCOCC1)C1COc2ncccc21 (single isomer, unassigned) [Example 81, 2,3-Dihydro-furo[2,3-b]pyridine-3-carboxylic acid [2-morpholin-4-yl-2-(2-trifluoromethyl-pyrimidin-5-yl)-ethyl]-amide] |  | 7520 |  |
| O=C(NCC(c1cnc(C(F)(F)F)nc1)N1CCOCC1)C1COc2ncccc21 (single isomer, unassigned) [Example 82, 2,3-Dihydro-furo[2,3-b]pyridine-3-carboxylic acid [2-morpholin-4-yl-2-(2-trifluoromethyl-pyrimidin-5-yl)-ethyl]-amide] |  | 2230 |  |
| [2H]C([2H])([2H])c1cc(Cl)cc(Cl)c1CNC(=O)C1COc2ncccc21 (single isomer, unassigned) [Example 97, 2,3-Dihydro-furo[2,3-b]pyridine-3-carboxylic acid 2,4-dichloro-6-trideuteromethyl-benzylamide] | 20 |  |  |
| [2H]C([2H])([2H])c1cc(Cl)cc(Cl)c1CNC(=O)C1COc2ncccc21 (single isomer, unassigned) [Example 98, 2,3-Dihydro-furo[2,3-b]pyridine-3-carboxylic acid 2,4-dichloro-6-trideuteromethyl-benzylamide] | 1.8 |  |  |
| O=C(NC1CCc2cc(Cl)ccc21)C1COc2ncccc21 (single isomer, unassigned) [Example 99, rac-2,3-Dihydro-furo[2,3-b]pyridine-3-carboxylic acid (5-chloro-indan-1-yl)-amide] | 301 |  |  |
| O=C(NC1CCc2cc(Cl)ccc21)C1COc2ncccc21 (single isomer, unassigned) [Example 100, rac-2,3-Dihydro-furo[2,3-b]pyridine-3-carboxylic acid (5-chloro-indan-1-yl)-amide] | 59.9 |  |  |
| O=C(NC(CO)C1CCCCCC1)C1CCOc2ncccc21 (stereo not shown) [Example 52, 3,4-Dihydro-2H-pyrano[2,3-b]pyridine-4-carboxylic acid (1-cycloheptyl-2-hydroxy-ethyl)-amide] |  | 276 |  |
| O=C(NCC(c1cnc(C(F)(F)F)nc1)N1CCC(F)(F)CC1)C1COc2ncccc21 (stereo not shown) [Example 62, 2,3-Dihydro-furo[2,3-b]pyridine-3-carboxylic acid [2-(4,4-difluoro-piperidin-1-yl)-2-(2-trifluoromethyl-pyrimidin-5-yl)-ethyl]-amide] |  | 46.9 |  |
